Test results as given in patent publication US20240197714A1, “METHODS FOR THE ADMINISTRATION OF CERTAIN VMAT2 INHIBITORS” (Neurocrine Biosciences, Inc., priority 2021, published 2024).
Where two headings read alike, the source gives them in different places.

Legend:
[1] = Phase 1 open-label 2-sequence crossover study, single-dose pharmacokinetics of deutetrabenazine metabolites in healthy subjects; type: in vivo, human; conditions: for AUC / Cmax / half-life: both sexes, human, oral, plasma; for AUC / Cmax: healthy subjects, single dose deutetrabenazine 24 mg, % CV in parentheses; for half-life: 24 mg; for AUC (% of Total): share of total circulating DHTBZ exposure after single dose deutetrabenazine 24 mg
Protocol: A phase 1, open-label, 2-sequence crossover study was conducted to evaluate the HTBZ PK profile following administration of valbenazine (40 mg) or deutetrabenazine (24 mg) to a total of 18 healthy male and female subjects.
Subjects received a single dose of valbenazine 40 mg on Day 1 and a single dose of deutetrabenazine 24 mg on Day 16; or received a single dose of deutetrabenazine 24 mg on Day 1 and a single dose of valbenazine 40 mg on Day 16. Valbenazine 40 mg was administered as one 40 mg capsule and deutetrabenazine 24 mg was administered as two 12 mg tablets. Study drug was administered at approximately 0800 hours, approximately 30 minutes after the start of a standard breakfast.
PK parameters were determined using non-compartmental analysis with Phoenix WinNonlin 8.3 software. The in vitro pharmacology of the deuterated HTBZ metabolites was assessed using competitive radioligand binding assays.

[2] = AUSTEDO label; likely similar in CYP2D6 poor metabolizers; cited from earlier work
[3] = metabolites of AUSTEDO, approximate, read-out: half-life (converted)

`[2H]C([2H])([2H])Oc1cc2c(cc1OC([2H])([2H])[2H])[C@H]1C[C@H](O)[C@H](CC(C)C)CN1CC2` [[+]-β-DHTBZ, (+)-β-3-isobutyl-9,10-di(methoxy-d3)-1,3,4,6,7,11b-hexahydro-2H-pyrido[2,1-a]isoquinolin-2-ol] gave an AUC [1] of 176 ng·h/mL, a Cmax [1] of 20.4 ng/mL and a half-life ([1]; after deutetrabenazine administration, read-out: mean half-life (converted)) of 7.7 h. The half-life [1, 3] was roughly 5 h and the “AUC (% of Total)” value [1] was 29%.

`[2H]C([2H])([2H])Oc1cc2c(cc1OC([2H])([2H])[2H])[C@@H]1C[C@@H](O)[C@@H](CC(C)C)CN1CC2` [[−]-β-DHTBZ, (−)-β-3-isobutyl-9,10-di(methoxy-d3)-1,3,4,6,7,11b-hexahydro-2H-pyrido[2,1-a]isoquinolin-2-ol] showed an AUC [1] of 15.8 ng·h/mL, a Cmax [1] of 1.7 ng/mL and a half-life [1, 3] of roughly 8 h. For the same compound, the “AUC (% of Total)” value [1] was 3%.

For `[2H]C([2H])([2H])Oc1cc2c(cc1OC([2H])([2H])[2H])[C@H]1C[C@@H](O)[C@H](CC(C)C)CN1CC2` [[+]-α-DHTBZ], the AUC [1] was 11 ng·h/mL, the Cmax [1] was 1.2 ng/mL and the half-life [1, 3] was roughly 6 h. The “AUC (% of Total)” value [1] was 2%.

For `COc1cc2c(cc1OC)[C@@H]1C[C@H](O)[C@@H](CC(C)C)CN1CC2` [α-DHTBZ], the “increase of exposure when taking a strong CYP2D6 inhibitor” value [2] is listed as “approximately 3 fold”.

`[2H]C([2H])([2H])Oc1cc2c(cc1OC([2H])([2H])[2H])[C@@H]1C[C@H](O)[C@@H](CC(C)C)CN1CC2` [[−]-α-DHTBZ, (−)-α-3-isobutyl-9,10-di(methoxy-d3)-1,3,4,6,7, 11b-hexahydro-2H-pyrido[2,1-a]isoquinolin-2-ol] gave an AUC [1] of 396 ng·h/mL, a Cmax [1] of 32.2 ng/mL and a half-life [1, 3] of roughly 12 h. The “AUC (% of Total)” value [1] was 66%.
